According to ChEMBL document CHEMBL1152847, “Molecular modeling and inhibition of phospholipase A2 by polyhydroxy phenolic compounds” (Eur J Med Chem, 2009):
Calls of active or inactive are those of the source. No cut-off for these calls is given here.

Key:
Crotalus adamanteus [1] = test: Activity of Crotalus adamanteus venom PLA2 assessed as 1-hexadecanoyl-2-(1-pyrenedecanoyl)-sn-glycero-3-phosphoglycerol hydrolysis at 0.15 uM
Crotalus adamanteus [2] = test: Activity of Crotalus adamanteus venom PLA2 assessed as 1-hexadecanoyl-2-(1-pyrenedecanoyl)-sn-glycero-3-phosphoglycerol hydrolysis at 0.30 uM
[3] = Inhibition of Crotalus adamanteus venom PLA2 assessed as effect on 1-hexadecanoyl-2-(1-pyrenedecanoyl)-sn-glycero-3-phosphoglycerol hydrolysis at 0.15 uM
[4] = Inhibition of Crotalus adamanteus venom PLA2 assessed as effect on 1-hexadecanoyl-2-(1-pyrenedecanoyl)-sn-glycero-3-phosphoglycerol hydrolysis at 0.30 uM
Crotalus adamanteus [5] = test: Inhibition of Crotalus adamanteus venom PLA2-induced edema in Swiss mouse at 50 ug, id; format: functional, organism-based

| SMILES | Km (Crotalus adamanteus [1]) | Vmax (Crotalus adamanteus [1]) | Km (Crotalus adamanteus [2]) | Vmax (Crotalus adamanteus [2]) | Ki [3] | Ki [4] | Activity (Crotalus adamanteus [5]) |
| --- | --- | --- | --- | --- | --- | --- | --- |
| CC(=O)c1ccc(O)cc1O | 4.03 mM | 18.1 nmol/min | 7.57 mM | 18.2 nmol/min | 33.3 nM | 32.1 nM |  |
| CC(=O)c1c(O)cccc1O | 4.25 mM | 18.2 nmol/min | 7.78 mM | 18 nmol/min | 30.1 nM | 31.2 nM |  |
| CC(=O)c1c(O)cc(O)cc1O [2,4,6-TRIHYDROXYACETOPHENONE] | 15.1 mM | 18 nmol/min | 28.2 mM | 18.3 nmol/min | 8.9 nM | 8.74 nM | Active |
| Oc1cc(O)cc(O)c1 [PHLOROGLUCINOL] | 12.1 mM | 18.1 nmol/min | 23.2 mM | 18 nmol/min | 8.77 nM | 8.86 nM | Active |
| Oc1cccc(O)c1 [RESORCINOL] | 12.6 mM | 18.1 nmol/min | 24.8 mM | 18 nmol/min | 8.83 nM | 8.72 nM | Active |
